# Results published in US10457703B2, “Bile acid derivatives as FXR/TGR5 agonists and methods of use thereof” (ENANTA PHARMACEUTICALS, INC., priority 2015, dated 2019).
# Biological target: human FXR (NR1H4) (Homo sapiens (Human), UniProt Q96RI1)
# Test: Human FXR (NR1H4) Assay (Gal4 promoter driven luciferase reporter, Indigo Bioscience kit);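 on Efficacy (%): 100% equals the efficacy of CDCA; efficacy normalized to CDCA set as 100%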
# Format: cell-based
# Conditions: for EC50: Human FXR (NR1H4) Assay, potency ranges; for Emax: read-out: Efficacy (%)
# Description: ASSAYS Human FXR (NR1H4) Assay
# Determination of a ligand mediated Gal4 promoter driven transactivation to quantify ligand binding mediated activation of FXR. FXR Reporter Assay kit purchased from Indigo Bioscience (Catalogue number: IB00601) to determine the potency and efficacy of compound developed by Enanta that can induce FXR activation. The principle application of this reporter assay system is to quantify functional activity of human FXR. The assay utilizes non-human mammalian cells, CHO (Chinese hamster ovary) cells engineered to express human NR1H4 protein (referred to as FXR). Reporter cells also incorporate the cDNA encoding beetle luciferase which catalyzes the substrates and yields photon emission. Luminescence intensity of the reaction is quantified using a plate-reading luminometer, Envision. Reporter Cells include the luciferase reporter gene functionally linked to an FXR responsive promoter. Thus, quantifying changes in luciferase expression in the treated reporter cells provides a sensitive surrogate measure of the changes in FXR activity. […] The assay is according to the manufacturer's instructions. In brief, the assay was performed in white, 96 well plates using final volume of 100 uL containing cells with different doses of compounds. Retrieve Reporter Cells from −80° C. storage. Perform a rapid thaw of the frozen cells by transferring a 10 ml volume of 37° C. cell recovery medium into the tube of frozen cells. Recap the tube of Reporter Cells and immediately place it in a 37° C. water bath for 5-10 minutes. Retrieve the tube of Reporter Cell Suspension from the water bath. Sanitize the outside surface of the tube with a 70% alcohol swab, and then transfer it into the cell culture hood. Dispense 90 μl of cell suspension into each well of the 96-well Assay Plate. Transfer the plate into 37° C. incubator, allowing the cells adherent to the bottom of the well. Dilute compounds in Dilution Plate (DP), and administrate to cells at Assay Plate (AP). DMSO content of the samples was kept at 0.2%. Cells were incubated for additional 22 hours before luciferase activities were measured. Thirty minutes before intending to quantify FXR activity, remove Detection Substrate and Detection Buffer from the refrigerator and place them in a low-light area so that they may equilibrate to room temperature. Remove the plate's lid and discard all media contents by ejecting it into an appropriate waste container. Gently tap the inverted plate onto a clean absorbent paper towel to remove residual droplets. Cells will remain tightly adhered to well bottoms. Add 100 μl of luciferase detection reagent to each well of the assay plate. Allow the assay plate to rest at room temperature for at least 5 minutes following the addition of LDR. Set the instrument (Envision) to perform a single 5 second “plate shake” prior to reading the first assay well. Read time may be 0.5 second (500 mSec) per well.
# human FXR (NR1H4), sequence (Q96RI1 whole entry, the tested form may be a part): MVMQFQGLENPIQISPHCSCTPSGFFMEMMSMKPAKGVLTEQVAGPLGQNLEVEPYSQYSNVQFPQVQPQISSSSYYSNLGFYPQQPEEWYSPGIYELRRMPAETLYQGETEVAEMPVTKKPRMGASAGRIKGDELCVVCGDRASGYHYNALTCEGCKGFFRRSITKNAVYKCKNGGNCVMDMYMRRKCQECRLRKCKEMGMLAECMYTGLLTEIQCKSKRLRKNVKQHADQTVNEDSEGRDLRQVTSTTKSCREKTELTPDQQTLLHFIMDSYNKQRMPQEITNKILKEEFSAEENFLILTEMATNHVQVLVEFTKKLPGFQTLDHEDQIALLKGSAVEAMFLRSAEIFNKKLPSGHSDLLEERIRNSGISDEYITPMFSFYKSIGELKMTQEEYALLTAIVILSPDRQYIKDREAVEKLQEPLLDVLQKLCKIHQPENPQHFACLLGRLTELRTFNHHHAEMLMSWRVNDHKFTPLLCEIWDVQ
SMILES,EC50 [nM],Emax [%]
CC[C@H]1[C@@H](O)[C@@H]2[C@H](CC[C@]3(C)[C@@H]([C@H](C)COC(=O)NS(=O)(=O)c4ccc(C)cc4)CC[C@@H]23)[C@@]2(C)CC[C@@H](O)C[C@@H]12 [Example 5],100 to 1000,85
CC[C@H]1[C@@H](O)[C@@H]2[C@H](CC[C@]3(C)[C@@H]([C@H](C)CCOC(=O)NS(C)(=O)=O)CC[C@@H]23)[C@@]2(C)CC[C@@H](O)C[C@@H]12 [Example 97],100 to 1000,245
CC[C@H]1[C@@H](O)[C@@H]2[C@H](CC[C@]3(C)[C@@H]([C@H](C)CCOC(=O)NS(=O)(=O)c4cccc(C(F)(F)F)c4)CC[C@@H]23)[C@@]2(C)CC[C@@H](O)C[C@@H]12 [Example 78],100 to 1000,365
CC[C@H]1[C@@H](O)[C@@H]2[C@H](CC[C@]3(C)[C@@H]([C@H](C)CCOC(=O)NC(C(C)C)C(C)C)CC[C@@H]23)[C@@]2(C)CC[C@@H](O)C[C@@H]12 [Example 176],1000 to 10000,368
CC[C@H]1[C@@H](O)[C@@H]2[C@H](CC[C@]3(C)[C@@H]([C@H](C)CCCOC(=O)Nc4ccc(C(C)(C)C)cc4)CC[C@@H]23)[C@@]2(C)CC[C@@H](O)C[C@@H]12 [Example 121],1000 to 10000,8
CC[C@H]1[C@@H](O)[C@@H]2[C@H](CC[C@]3(C)[C@@H]([C@H](C)CCOC(=O)Nc4ccc5ccccc5c4)CC[C@@H]23)[C@@]2(C)CC[C@@H](O)C[C@@H]12 [Example 197],1000 to 10000,101
CC[C@H]1[C@@H](O)[C@@H]2[C@H](CC[C@]3(C)[C@@H]([C@H](C)CCOC(=O)NS(=O)(=O)c4cccnc4)CC[C@@H]23)[C@@]2(C)CC[C@@H](O)C[C@@H]12 [Example 95],1000 to 10000,420
CC[C@H]1[C@@H](O)[C@@H]2[C@H](CC[C@]3(C)[C@@H]([C@H](C)CCOC(=O)NS(=O)(=O)N4CC(F)(F)C4)CC[C@@H]23)[C@@]2(C)CC[C@@H](O)C[C@@H]12 [Example 104-j],< 100,327
CC[C@H]1[C@@H](O)[C@@H]2[C@H](CC[C@]3(C)[C@@H]([C@H](C)COC(=O)NS(=O)(=O)c4ccc(-c5ccc(C(C)(C)C)cc5)s4)CC[C@@H]23)[C@@]2(C)CC[C@@H](O)C[C@@H]12 [Example 25],100 to 1000,182
CC[C@H]1[C@@H](O)[C@@H]2[C@H](CC[C@]3(C)[C@@H]([C@H](C)COC(=O)NC4CCCCC4)CC[C@@H]23)[C@@]2(C)CC[C@@H](O)C[C@@H]12 [Example 199],1000 to 10000,14
CC[C@H]1[C@@H](O)[C@@H]2[C@H](CC[C@]3(C)[C@@H]([C@H](C)COC(=O)NS(=O)(=O)c4ccc(-c5ccc(C(C)(C)C)cc5)cc4)CC[C@@H]23)[C@@]2(C)CC[C@@H](O)C[C@@H]12 [Example 34],100 to 1000,186
CC[C@H]1[C@@H](O)[C@@H]2[C@H](CC[C@]3(C)[C@@H]([C@H](C)CCOC(=O)NS(=O)(=O)c4ccccc4C(C)(C)C)CC[C@@H]23)[C@@]2(C)CC[C@@H](O)C[C@@H]12 [Example 85],< 100,240
CC[C@H]1[C@@H](O)[C@@H]2[C@H](CC[C@]3(C)[C@@H]([C@H](C)CCOC(=O)NCCc4ccc(OC)c(OC)c4)CC[C@@H]23)[C@@]2(C)CC[C@@H](O)C[C@@H]12 [Example 144],100 to 1000,229
CC[C@H]1[C@@H](O)[C@@H]2[C@H](CC[C@]3(C)[C@@H]([C@H](C)CCOC(=O)NS(=O)(=O)C[C@]45CCC(CC4=O)C5(C)C)CC[C@@H]23)[C@@]2(C)CC[C@@H](O)C[C@@H]12 [Example 58],< 100,366
CC[C@H]1[C@@H](O)[C@@H]2[C@H](CC[C@]3(C)[C@@H]([C@H](C)CCOC(=O)N[C@H]4CCC[C@@H]4O)CC[C@@H]23)[C@@]2(C)CC[C@@H](O)C[C@@H]12 [Example 208],100 to 1000,205
CC[C@H]1[C@@H](O)[C@@H]2[C@H](CC[C@]3(C)[C@@H]([C@H](C)CCOC(=O)N4CCC[C@H]4CO)CC[C@@H]23)[C@@]2(C)CC[C@@H](O)C[C@@H]12 [Example 210],< 100,156

SMILES,EC50 [nM],Emax [%]
CC[C@H]1[C@@H](O)[C@@H]2[C@H](CC[C@]3(C)[C@@H]([C@H](C)CCCOC(=O)NC4CC4)CC[C@@H]23)[C@@]2(C)CC[C@@H](O)C[C@@H]12 [Example 122],100 to 1000,204
CC[C@H]1[C@@H](O)[C@@H]2[C@H](CC[C@]3(C)[C@@H]([C@H](C)CCOC(=O)NS(=O)(=O)CC)CC[C@@H]23)[C@@]2(C)CC[C@@H](O)C[C@@H]12 [Example 98],100 to 1000,279
CC[C@H]1[C@@H](O)[C@@H]2[C@H](CC[C@]3(C)[C@@H]([C@H](C)CCCOC(=O)N4CCOCC4)CC[C@@H]23)[C@@]2(C)CC[C@@H](O)C[C@@H]12 [Example 130],1000 to 10000,256
CC[C@H]1[C@@H](O)[C@@H]2[C@H](CC[C@]3(C)[C@@H]([C@H](C)CCOC(=O)N4CCC(CO)(CO)CC4)CC[C@@H]23)[C@@]2(C)CC[C@@H](O)C[C@@H]12 [Example 218],< 100,356
CC[C@H]1[C@@H](O)[C@@H]2[C@H](CC[C@]3(C)[C@@H]([C@H](C)COC(=O)NS(=O)(=O)c4ccc(-c5ccccc5)cc4)CC[C@@H]23)[C@@]2(C)CC[C@@H](O)C[C@@H]12 [Example 32],< 100,164
CC[C@H]1[C@@H](O)[C@@H]2[C@H](CC[C@]3(C)[C@@H]([C@H](C)CCOC(=O)NS(=O)(=O)c4ccc5c(c4)CCC5)CC[C@@H]23)[C@@]2(C)CC[C@@H](O)C[C@@H]12 [Example 67],< 100,290
CC[C@H]1[C@@H](O)[C@@H]2[C@H](CC[C@]3(C)[C@@H]([C@H](C)COC(=O)NS(=O)(=O)c4ccc(N5CCCCC5=O)cc4)CC[C@@H]23)[C@@]2(C)CC[C@@H](O)C[C@@H]12 [Example 18],< 100,221
CC[C@H]1[C@@H](O)[C@@H]2[C@H](CC[C@]3(C)[C@@H]([C@H](C)COC(=O)NS(=O)(=O)c4ccc(C(C)(C)C)cc4)CC[C@@H]23)[C@@]2(C)CC[C@@H](O)C[C@@H]12 [Example 4],< 100,319
CC[C@H]1[C@@H](O)[C@@H]2[C@H](CC[C@]3(C)[C@@H]([C@H](C)CCOC(=O)NS(=O)(=O)C(C)(C)C)CC[C@@H]23)[C@@]2(C)CC[C@@H](O)C[C@@H]12 [Example 48],< 100,282
CC[C@H]1[C@@H](O)[C@@H]2[C@H](CC[C@]3(C)[C@@H]([C@H](C)CCOC(=O)NCc4ccccc4)CC[C@@H]23)[C@@]2(C)CC[C@@H](O)C[C@@H]12 [Example 125],100 to 1000,305
CC[C@H]1[C@@H](O)[C@@H]2[C@H](CC[C@]3(C)[C@@H]([C@H](C)COC(=O)NS(=O)(=O)N4CCCC4)CC[C@@H]23)[C@@]2(C)CC[C@@H](O)C[C@@H]12 [Example 13],100 to 1000,324
CC[C@H]1[C@@H](O)[C@@H]2[C@H](CC[C@]3(C)[C@@H]([C@H](C)CCOC(=O)NS(=O)(=O)c4ccc(F)cc4)CC[C@@H]23)[C@@]2(C)CC[C@@H](O)C[C@@H]12 [Example 46],< 100,267
CC[C@H]1[C@@H](O)[C@@H]2[C@H](CC[C@]3(C)[C@@H]([C@H](C)COC(=O)NS(=O)(=O)c4ccc(-n5cncn5)nc4)CC[C@@H]23)[C@@]2(C)CC[C@@H](O)C[C@@H]12 [Example 44-l],100 to 1000,165
CC[C@H]1[C@@H](O)[C@@H]2[C@H](CC[C@]3(C)[C@@H]([C@H](C)CCCOC(=O)N(CC)CC)CC[C@@H]23)[C@@]2(C)CC[C@@H](O)C[C@@H]12 [Example 132],1000 to 10000,205
CC[C@H]1[C@@H](O)[C@@H]2[C@H](CC[C@]3(C)[C@@H]([C@H](C)CCOC(=O)NC(C)C)CC[C@@H]23)[C@@]2(C)CC[C@@H](O)C[C@@H]12 [Example 136],100 to 1000,185
